Measured values taken from ChEMBL document CHEMBL5465560, “Selectivity Literature for EUbOPEN Chemogenomic Library” (2024).

Tests used:
[1] = biological target: Casein kinase II subunit alpha (Homo sapiens, UniProt P68400); details: at 10 µM
[2] = biological target: BMP-2-inducible protein kinase (Homo sapiens) (UniProt Q9NSY1); experiment: Selectivity interaction (KINOMEscan (DiscoverX)) EUB0001868a BMP2K; details: at 1 µM
[3] = biological target: T1, Serine/threonine-protein kinase RIO3 (Homo sapiens) (UniProt O14730); experiment: Selectivity interaction (KinomeScan (DiscoverX)) EUB0001868a RIOK3; details: at 1 µM
T1 sequence (whole entry): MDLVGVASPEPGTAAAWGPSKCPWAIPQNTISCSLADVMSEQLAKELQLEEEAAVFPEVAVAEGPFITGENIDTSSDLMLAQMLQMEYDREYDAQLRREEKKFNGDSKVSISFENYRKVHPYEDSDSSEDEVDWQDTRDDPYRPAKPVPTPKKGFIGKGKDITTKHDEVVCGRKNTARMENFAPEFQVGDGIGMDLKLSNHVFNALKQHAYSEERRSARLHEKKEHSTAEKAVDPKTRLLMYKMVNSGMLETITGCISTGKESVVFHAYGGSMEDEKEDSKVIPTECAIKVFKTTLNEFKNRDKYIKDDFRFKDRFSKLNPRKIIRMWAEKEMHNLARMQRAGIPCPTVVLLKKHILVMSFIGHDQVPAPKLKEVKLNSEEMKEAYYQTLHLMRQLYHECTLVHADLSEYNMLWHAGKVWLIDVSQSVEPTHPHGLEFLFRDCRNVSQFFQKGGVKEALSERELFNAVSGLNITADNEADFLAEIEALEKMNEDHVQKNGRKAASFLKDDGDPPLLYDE

[4] = biological target: MAP/microtubule affinity-regulating kinase 3 (Homo sapiens) (UniProt P27448); experiment: Selectivity interaction (Kinase panel (Invitrogen)) EUB0000639a MARK3; details: at 200 nM
MAP/microtubule affinity-regulating kinase 3 (Homo sapiens), sequence (P27448 whole entry, looked up): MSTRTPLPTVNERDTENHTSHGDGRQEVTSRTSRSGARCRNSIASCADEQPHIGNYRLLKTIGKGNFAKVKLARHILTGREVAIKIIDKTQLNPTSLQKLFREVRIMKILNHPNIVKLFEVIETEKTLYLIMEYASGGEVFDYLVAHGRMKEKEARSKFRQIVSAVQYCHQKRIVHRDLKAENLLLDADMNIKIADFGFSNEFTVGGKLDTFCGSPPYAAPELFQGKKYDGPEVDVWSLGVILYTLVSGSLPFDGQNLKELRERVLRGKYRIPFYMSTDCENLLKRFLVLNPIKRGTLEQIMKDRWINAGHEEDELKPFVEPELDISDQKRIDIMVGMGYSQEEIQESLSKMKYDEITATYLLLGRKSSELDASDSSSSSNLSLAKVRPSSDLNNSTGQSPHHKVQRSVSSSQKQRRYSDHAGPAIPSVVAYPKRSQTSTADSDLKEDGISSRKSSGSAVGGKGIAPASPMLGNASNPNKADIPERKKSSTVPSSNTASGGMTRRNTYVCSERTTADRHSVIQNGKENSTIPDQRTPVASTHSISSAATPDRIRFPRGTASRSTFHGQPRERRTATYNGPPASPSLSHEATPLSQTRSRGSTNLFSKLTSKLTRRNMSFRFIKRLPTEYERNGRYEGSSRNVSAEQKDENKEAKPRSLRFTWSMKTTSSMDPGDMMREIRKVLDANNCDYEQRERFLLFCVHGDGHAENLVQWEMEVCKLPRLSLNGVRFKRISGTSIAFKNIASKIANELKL

[5] = biological target: Serine/threonine-protein kinase SIK2 (Homo sapiens) (UniProt Q9H0K1); experiment: Selectivity interaction (Kinase panel (Carna Biosciences)) EUB0001542aTs SIK2; details: at 1 µM
Serine/threonine-protein kinase SIK2 (Homo sapiens), sequence (Q9H0K1 whole entry, looked up): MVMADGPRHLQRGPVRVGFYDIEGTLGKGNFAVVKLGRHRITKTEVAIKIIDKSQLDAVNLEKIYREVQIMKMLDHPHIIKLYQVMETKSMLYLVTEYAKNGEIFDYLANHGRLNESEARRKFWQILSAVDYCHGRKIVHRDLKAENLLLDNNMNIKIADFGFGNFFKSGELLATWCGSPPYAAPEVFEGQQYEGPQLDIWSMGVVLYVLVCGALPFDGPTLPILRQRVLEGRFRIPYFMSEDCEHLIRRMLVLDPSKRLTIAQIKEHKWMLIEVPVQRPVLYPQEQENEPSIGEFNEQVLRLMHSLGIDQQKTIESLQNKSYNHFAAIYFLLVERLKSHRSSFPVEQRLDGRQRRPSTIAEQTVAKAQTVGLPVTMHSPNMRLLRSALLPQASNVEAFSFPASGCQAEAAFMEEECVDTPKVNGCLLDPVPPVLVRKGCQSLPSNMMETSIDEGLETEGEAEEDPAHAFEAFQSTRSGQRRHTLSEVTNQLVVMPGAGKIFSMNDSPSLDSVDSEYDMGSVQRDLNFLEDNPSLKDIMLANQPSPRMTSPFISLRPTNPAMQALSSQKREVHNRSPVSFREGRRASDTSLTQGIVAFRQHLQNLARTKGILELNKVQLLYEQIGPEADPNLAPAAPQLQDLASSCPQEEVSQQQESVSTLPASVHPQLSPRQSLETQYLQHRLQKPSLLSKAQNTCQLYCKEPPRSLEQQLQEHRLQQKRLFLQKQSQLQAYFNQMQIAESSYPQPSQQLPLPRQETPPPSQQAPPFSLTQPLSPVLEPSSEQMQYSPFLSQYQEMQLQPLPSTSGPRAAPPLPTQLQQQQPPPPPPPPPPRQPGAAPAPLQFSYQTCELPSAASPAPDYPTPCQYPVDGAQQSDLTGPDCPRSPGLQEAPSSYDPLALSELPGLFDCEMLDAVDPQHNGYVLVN

[6] = biological target: Protein kinase C beta type (Homo sapiens, UniProt P05771); experiment: Selectivity interaction (Kinase panel (Z-LYTE Assay)) EUB0001632a PRKCB; details: at 10 µM
[7] = biological target: T2, Serine/threonine-protein kinase Sgk1 (Homo sapiens) (UniProt O00141); experiment: Selectivity interaction (KinomeScan (DiscoverX)) EUB0000695a SGK1; details: at 100 nM
T2 sequence (whole entry): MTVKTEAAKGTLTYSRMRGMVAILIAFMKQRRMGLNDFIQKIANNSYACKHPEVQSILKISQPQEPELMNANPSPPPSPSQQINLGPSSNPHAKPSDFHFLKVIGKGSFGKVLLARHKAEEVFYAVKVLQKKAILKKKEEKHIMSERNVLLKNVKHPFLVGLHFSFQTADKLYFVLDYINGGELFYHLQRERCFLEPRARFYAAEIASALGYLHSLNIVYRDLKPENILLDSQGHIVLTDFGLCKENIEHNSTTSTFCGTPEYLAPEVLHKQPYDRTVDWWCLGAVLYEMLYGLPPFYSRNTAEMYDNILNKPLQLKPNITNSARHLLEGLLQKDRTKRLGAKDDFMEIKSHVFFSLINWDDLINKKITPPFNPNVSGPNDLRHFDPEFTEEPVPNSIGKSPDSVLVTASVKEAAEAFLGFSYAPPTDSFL

[8] = biological target: Cyclin-dependent kinase 13 (Homo sapiens, UniProt Q14004); experiment: Selectivity interaction (KinomeScan (DiscoverX)) EUB0000229b CDK13; details: at 10 µM
[9] = biological target: Tyrosine-protein kinase Srms (Homo sapiens) (UniProt Q9H3Y6); experiment: Selectivity interaction (KinomeScan (DiscoverX)) EUB0001079a SRMS; details: at 1 µM
[10] = biological target: Serine/threonine-protein kinase RIO2 (Homo sapiens) (UniProt Q9BVS4); experiment: Selectivity interaction (KinomeScan (DiscoverX)) EUB0000092b RIOK2; details: at 10 µM
[11] = biological target: Calcium/calmodulin-dependent protein kinase type II subunit beta (Homo sapiens) (UniProt Q13554); experiment: Selectivity interaction (KinomeScan (DiscoverX)) EUB0000045b CAMK2B
Calcium/calmodulin-dependent protein kinase type II subunit beta (Homo sapiens), sequence (Q13554 whole entry): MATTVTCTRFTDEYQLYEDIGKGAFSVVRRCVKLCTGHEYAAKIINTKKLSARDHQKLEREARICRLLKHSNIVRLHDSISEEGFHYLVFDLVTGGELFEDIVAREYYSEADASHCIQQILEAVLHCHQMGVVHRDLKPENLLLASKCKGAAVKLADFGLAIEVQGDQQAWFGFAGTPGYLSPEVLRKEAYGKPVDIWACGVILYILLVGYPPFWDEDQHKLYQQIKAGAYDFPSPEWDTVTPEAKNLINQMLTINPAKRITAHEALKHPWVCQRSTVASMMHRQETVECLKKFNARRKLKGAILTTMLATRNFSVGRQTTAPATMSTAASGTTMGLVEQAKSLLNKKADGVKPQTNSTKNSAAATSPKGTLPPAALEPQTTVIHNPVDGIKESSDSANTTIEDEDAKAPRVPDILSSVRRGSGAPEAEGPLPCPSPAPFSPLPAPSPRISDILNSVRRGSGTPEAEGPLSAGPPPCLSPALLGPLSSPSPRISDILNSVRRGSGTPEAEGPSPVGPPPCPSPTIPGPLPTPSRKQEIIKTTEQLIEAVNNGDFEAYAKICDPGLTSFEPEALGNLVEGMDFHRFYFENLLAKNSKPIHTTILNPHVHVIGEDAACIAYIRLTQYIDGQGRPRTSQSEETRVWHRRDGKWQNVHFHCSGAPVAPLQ

[12] = biological target: Tyrosine-protein kinase JAK2 (Homo sapiens, UniProt O60674); experiment: Selectivity interaction (Antiproliferative activity against Tel-kinase transformed Ba/F3 cell line) EUB0000045b JAK2; type: cell-based; details: BaF3
[13] = biological target: Bone morphogenetic protein receptor type-1B (Homo sapiens, UniProt O00238); experiment: Selectivity interaction (KinomeScan (DiscoverX)) EUB0000655a BMPR1B; details: at 10 µM
[14] = biological target: Serine/threonine-protein kinase 32C (Homo sapiens) (UniProt Q86UX6); experiment: Selectivity interaction (KinomeScan (DiscoverX)) EUB0000655a STK32C; details: at 10 µM
[15] = biological target: Serine/threonine-protein kinase PAK 1 (Homo sapiens) (UniProt Q13153); experiment: Selectivity interaction (KinomeScan (DiscoverX)) EUB0000666a PAK1; details: at 10 µM
Serine/threonine-protein kinase PAK 1 (Homo sapiens), sequence (Q13153 whole entry): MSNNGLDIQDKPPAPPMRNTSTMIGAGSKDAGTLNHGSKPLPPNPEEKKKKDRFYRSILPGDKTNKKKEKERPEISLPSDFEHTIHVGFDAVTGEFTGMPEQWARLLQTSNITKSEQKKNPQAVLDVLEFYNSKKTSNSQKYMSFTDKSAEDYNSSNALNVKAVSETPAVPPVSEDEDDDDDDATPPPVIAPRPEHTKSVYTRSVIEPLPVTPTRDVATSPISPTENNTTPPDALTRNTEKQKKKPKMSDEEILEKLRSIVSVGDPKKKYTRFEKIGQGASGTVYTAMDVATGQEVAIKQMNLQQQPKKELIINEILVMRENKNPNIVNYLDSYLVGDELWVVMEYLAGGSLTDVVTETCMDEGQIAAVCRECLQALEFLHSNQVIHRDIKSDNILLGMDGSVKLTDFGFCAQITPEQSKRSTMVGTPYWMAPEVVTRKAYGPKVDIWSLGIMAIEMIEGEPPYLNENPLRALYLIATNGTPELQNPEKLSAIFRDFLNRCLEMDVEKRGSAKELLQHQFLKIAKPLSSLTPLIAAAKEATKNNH

[16] = biological target: Serine/threonine-protein kinase 25 (Homo sapiens) (UniProt O00506); experiment: Selectivity interaction (KinomeScan (DiscoverX)) EUB0000666a STK25; details: at 10 µM
Serine/threonine-protein kinase 25 (Homo sapiens), sequence (O00506 whole entry, looked up): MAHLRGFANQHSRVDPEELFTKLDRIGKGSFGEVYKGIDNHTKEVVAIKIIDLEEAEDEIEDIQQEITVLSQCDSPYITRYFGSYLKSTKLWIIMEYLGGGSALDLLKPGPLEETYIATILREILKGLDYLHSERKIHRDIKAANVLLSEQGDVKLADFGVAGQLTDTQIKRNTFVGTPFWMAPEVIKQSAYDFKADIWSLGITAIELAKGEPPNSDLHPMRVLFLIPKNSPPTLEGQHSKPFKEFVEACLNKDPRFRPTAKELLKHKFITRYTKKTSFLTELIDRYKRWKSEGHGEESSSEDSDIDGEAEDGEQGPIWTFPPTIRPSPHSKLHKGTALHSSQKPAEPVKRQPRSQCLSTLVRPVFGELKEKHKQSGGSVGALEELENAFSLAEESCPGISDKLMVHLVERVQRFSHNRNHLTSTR

BMP-2-inducible protein kinase (Homo sapiens), sequence (Q9NSY1 whole entry, looked up): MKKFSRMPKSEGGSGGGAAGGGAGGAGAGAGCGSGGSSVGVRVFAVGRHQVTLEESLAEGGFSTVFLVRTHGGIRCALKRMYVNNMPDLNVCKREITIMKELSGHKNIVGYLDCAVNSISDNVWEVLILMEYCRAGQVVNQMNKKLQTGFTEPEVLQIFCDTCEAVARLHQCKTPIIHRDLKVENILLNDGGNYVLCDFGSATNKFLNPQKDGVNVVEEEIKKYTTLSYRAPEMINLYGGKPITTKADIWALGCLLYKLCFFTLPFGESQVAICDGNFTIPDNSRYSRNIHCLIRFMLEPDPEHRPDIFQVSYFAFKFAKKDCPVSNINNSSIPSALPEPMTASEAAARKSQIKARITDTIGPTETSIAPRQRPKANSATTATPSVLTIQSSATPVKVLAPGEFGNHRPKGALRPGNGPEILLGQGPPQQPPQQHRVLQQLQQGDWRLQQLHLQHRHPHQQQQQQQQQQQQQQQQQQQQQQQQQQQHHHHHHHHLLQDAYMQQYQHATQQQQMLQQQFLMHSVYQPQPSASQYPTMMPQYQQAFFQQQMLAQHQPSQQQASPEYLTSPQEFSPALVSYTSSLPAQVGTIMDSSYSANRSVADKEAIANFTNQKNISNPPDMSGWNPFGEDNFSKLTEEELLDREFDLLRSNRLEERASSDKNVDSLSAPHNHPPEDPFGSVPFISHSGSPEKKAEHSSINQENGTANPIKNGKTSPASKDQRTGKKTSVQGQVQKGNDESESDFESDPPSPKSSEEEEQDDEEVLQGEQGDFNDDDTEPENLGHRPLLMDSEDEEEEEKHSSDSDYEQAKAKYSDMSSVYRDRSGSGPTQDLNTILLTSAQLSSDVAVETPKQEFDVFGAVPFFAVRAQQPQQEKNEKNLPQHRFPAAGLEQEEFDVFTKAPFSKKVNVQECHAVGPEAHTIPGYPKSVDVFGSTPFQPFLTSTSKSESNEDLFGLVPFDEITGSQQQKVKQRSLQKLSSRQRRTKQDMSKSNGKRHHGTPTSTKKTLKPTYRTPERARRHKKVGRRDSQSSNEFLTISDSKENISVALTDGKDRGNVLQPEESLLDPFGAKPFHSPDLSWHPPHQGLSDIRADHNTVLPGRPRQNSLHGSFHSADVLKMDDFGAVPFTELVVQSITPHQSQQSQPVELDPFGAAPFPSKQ
Casein kinase II subunit alpha, sequence (P68400 whole entry, looked up): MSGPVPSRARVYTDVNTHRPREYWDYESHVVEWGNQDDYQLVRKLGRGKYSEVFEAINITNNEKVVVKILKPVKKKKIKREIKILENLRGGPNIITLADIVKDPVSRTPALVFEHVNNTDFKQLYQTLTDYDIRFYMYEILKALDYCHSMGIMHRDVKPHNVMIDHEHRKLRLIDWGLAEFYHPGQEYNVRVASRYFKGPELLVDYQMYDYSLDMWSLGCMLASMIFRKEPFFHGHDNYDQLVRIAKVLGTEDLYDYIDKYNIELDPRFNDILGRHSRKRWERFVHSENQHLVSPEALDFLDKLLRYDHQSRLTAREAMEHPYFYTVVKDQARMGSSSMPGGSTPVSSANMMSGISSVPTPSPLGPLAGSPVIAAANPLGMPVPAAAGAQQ

Q: Cc1cc([C@@H](C)Nc2ccccc2C(=O)O)c2nc(N3CCOCC3)cc(=O)n2c1 [AZD-6482] was tested. Which % of control [1] did it give?
A: The % of control was 100%.

Q: Which % of control [2] does the source give for Cc1cc(-c2ccnc(Nc3cnn(C)c3)n2)ccc1CNC(=O)N1CC(OC(C)C)C1 here?
A: The % of control was 18%.

Q: And the % of control [3]?
A: The % of control was 19%.

Q: Which % of inhibition [4] does the source give for CC[C@@H]1[C@H](F)C(=O)N[C@@H]1COc1nccc2cc(C(N)=O)c(OC)cc12 [ZIMLOVISERTIB] here?
A: The % of inhibition was 12.4%.

Q: Cn1cc(Nc2nccc(N3CC4CCC(C3)N4C(=O)[C@@H]3CC3(F)F)n2)cn1 was tested. Which % of inhibition [5] did it give?
A: Its % of inhibition is 91%.

Q: Cn1cc(-n2cnc3c(NCc4nc5cc(Cl)c(Cl)cc5[nH]4)nc(N4CCOCC4)nc32)cn1 was tested. Which % of control [6] did it give?
A: Its % of control is 15.6%.

Q: With Cc1cc(F)c(C(=O)Nc2cccc(-c3nncn3C(C)C)n2)cc1-n1cnc(C2CC2)c1 as the molecule, how does the % of control [7] read?
A: Its % of control is 90%.

Q: With COc1cc(N(C)c2ccnc3ccc(C(F)(F)F)cc23)cc(OC)c1OC as the molecule, how does the % binding [8] read?
A: Its % binding is 88%.

Q: For Nc1cnc(N2CCc3cc(S(=O)(=O)Nc4c(F)cc(Cl)cc4F)cc(N4CCCC4=O)c32)nc1 [TP-020n], which % of control [9] is on record?
A: The % of control was 88%.

Q: With CCC(=O)N1CCN(c2ccc(-n3c(=O)ccc4cnc5ccc(-c6cnc7ccccc7c6)cc5c43)cc2C(F)(F)F)CC1 as the molecule, how does the % of control [10] read?
A: The % of control was 24%.

Q: Which results are given for C=CC(=O)Nc1cc(-n2c(=O)ccc3cnc4ccc(-c5ccc(NS(C)(=O)=O)cc5)cc4c32)ccc1C?
A: % of control ([11]; at 1 µM): 100%; % of control ([11]; at 10 µM): 74%; GIC50 [12]: 5.83 µM

Q: Which results are given for CN(C)CCOc1ccc(-c2nc(-c3ccncc3)c(-c3ccc4c(c3)CC/C4=N\O)[nH]2)cc1?
A: % of control [13]: 26%; % of control [14]: 100%

Q: Which % of control [15] does the source give for O=C(NOC[C@H](O)CO)c1ccc(F)c(F)c1Nc1ccc(I)cc1F here?
A: The % of control was 100%.

Q: What about the % of control [16] of the same molecule?
A: Its % of control is 91%.
